The text below walks through data of patent US20170197935A1, “INHIBITORS OF DNA GYRASE FOR THE TREATMENT OF BACTERIAL INFECTIONS” (Vitas Pharma Research Private Limited, priority 2012, published 2017).

Each structure is given as a SMILES string. In brackets after ≈: the same amount, converted by molar mass. Where two headings read alike, the source gives them in different places. Where only a bound is given, the exact number is not on record here.

Data set [1] relates to Streptococcus pneumoniae (ATCC 6301). The experiment in a line: MIC by microbroth dilution, Streptococcus pneumoniae ATCC 6301. The note with it: ATCC6301. Type of data set: cell-based. As for the experimental part:
(§1) Shown below are the microbiological activities of representative compounds of Formula I of the invention. The compounds were tested by the microbroth dilution method (National committee for Clinical Laboratory Standards, 2011, […]-08) and the Minimum Inhibitory Concentration (MIC) was determined.

Data set [2] deals with Staphylococcus aureus (ATCC 29213). Description: MIC by microbroth dilution, Staphylococcus aureus ATCC 29213. Type of data set: cell-based. The note with it: ATCC29213. As for the experimental part:
as §1

Data set [3] concerns K. pneumoniae (ATCC 700603). The experiment in a line: MIC by microbroth dilution, K. pneumoniae ATCC 700603. Type of data set: cell-based. Particulars: Klebsiella pneumoniae, ATCC700603, Formula I compounds. As for the experimental part: (§2) Shown below are the microbiological activities of representative compounds of Formula I of the invention. The compounds were tested by the microbroth dilution method (National committee for Clinical Laboratory Standards, 2011, M07-08) and the Minimum Inhibitory Concentration (MIC) was determined.
(§3) Analysis of microbiological activity of compounds shown below are the microbiological activities of representative compounds of Formula II of the invention. The compounds were tested by the microbroth dilution method as per the reference in Example 1.

In a further data set the target is hERG (Homo sapiens, UniProt Q12809). The experiment in a line: biochemical.
A further data set deals with E. coli (ATCC 25922). The experiment in a line: MIC by microbroth dilution, E. coli ATCC 25922. Type of data set: cell-based. The note with it: Escherichia coli. The method, then:
as §2, §3

For data set [4], the system named is Moraxella catarrhalis (ATCC 8176). The experiment in a line: MIC by microbroth dilution, Moraxella catarrhalis ATCC 8176. Type of data set: cell-based. The note with it: ATCC8176. As for the experimental part: as §1
The subject of data set [5] is Enterococcus faecalis (ATCC 29212). The experiment in a line: MIC by microbroth dilution, Enterococcus faecalis ATCC 29212. Type of data set: cell-based. The note with it: ATCC29212. As for the experimental part:
as §1

In data set [6] the test system is Methicillin resistant Staphylococcus aureus (ATCC 33591). The experiment in a line: MIC by microbroth dilution, MRSA ATCC 33591. The class given is cell-based. As for the experimental part:
as §2, §3

The target of data set [7] is T1, ciprofloxacin resistant recombinant Gyrase protein (with mutation S83L) (Escherichia coli, UniProt P0AES4+P0AES6, S83L).
T1 construct: purchased Inspiralis
Description: Gyrase supercoiling assay with ciprofloxacin resistant Gyrase (S83L). Type of data set: biochemical. Particulars: read-out: Target specificity: % inhibition of supercoiling activity. The method, then:
The enzyme is incubated with the substrate (relaxed DNA) in the presence and absence of compounds for 1 hour at 37° C. and the DNA is run on a gel at low voltage for several hours. The amount of supercoiled DNA is quantified using DNA imaging and quantification software (Image Lab). The activity of the enzyme is proportional to the amount of supercoiled form detected.

Another data set has as its system E. faecalis ATCC 51299. Description: MIC by microbroth dilution, E. faecalis ATCC 51299. Type of data set: cell-based. Particulars: Enterococcus faecalis, ATCC51299, Formula II compounds, read-out: Minimum Inhibitory Concentration (MIC) E. faecalis ATCC 51299. The method, then: as §2, §3
A further data set deals with Acinetobacter BAA747. Description: MIC by microbroth dilution, Acinetobacter BAA747. Type of data set: cell-based. Particulars: Formula II compounds, read-out: Minimum Inhibitory Concentration (MIC) Acinetobacter BAA747. The method, then:
as §2, §3

For a further data set, the system named is Pseudomonas ATCC 27853. Description: MIC by microbroth dilution, Pseudomonas ATCC 27853. The class given is cell-based. Particulars: ATCC27853, Formula II compounds, read-out: Minimum Inhibitory Concentration (MIC) Pseudomonas ATCC 27853. The method, then: as §2, §3
Data set [8] is described as follows: Single dose pharmacokinetics in male Swiss albino mice. Type of data set: in vivo. The note with it: mouse, in vivo. The method, then: (§4) Compounds were dosed to male Swiss albino mice to determine the pharmacokinetic profiles.
as §4

Setting [9] is: ATCC25922, Formula I compounds, read-out: MIC E. coli (ATCC 25922).
Where [10] appears, read: ATCC33591, Formula I compounds, read-out: MIC Methicillin resistant Staphylococcus aureus (ATCC 33591).
[11] abbreviates: ATCC25922, Formula II compounds, read-out: Minimum Inhibitory Concentration (MIC) E. coli ATCC 25922.
The mark [12] stands for this setting: Formula II compounds, read-out: Minimum Inhibitory Concentration (MIC) MRSA ATCC 33591.

Description for hERG: To test the ability of the VT-03 compounds to bind the hERG channel, membranes expressing the hERG channel were incubated with radiolabeled Astemizole and displacement of the labeled ligand in the presence of compounds was measured.
To test the ability of the VT-03 compounds (of Formula II) to bind the hERG channel, membranes expressing the hERG channel were incubated with radiolabeled Astemizole and displacement of the labeled ligand in the presence of compounds was measured.

As to `COc1ccc2ncc(C#N)c(CCN3CCC(NCc4csc([N+](=O)[O-])c4)CC3)c2c1` [VT-03-00053], the MIC in data set [1] is 1 µg/mL (≈ 2.21 µM); in data set [2], 0.25 µg/mL (≈ 0.554 µM); in data set [3] it was greater than 32 µg/mL; with E. coli (ATCC 25922) (setting [9]), 4 µg/mL (≈ 8.86 µM); in data set [4], 0.5 µg/mL (≈ 1.11 µM); in data set [5], 2 µg/mL (≈ 4.43 µM). The MIC in data set [6] (setting [10]) was 0.25 µg/mL (≈ 0.554 µM). In addition, the IC50 on hERG is greater than 30 µM.

Regarding `COc1ccc2ncc(C#N)c(CCN3CCC(NC(=O)c4ccc(Cl)c([N+](=O)[O-])c4)CC3)c2c1` [VT-03-00058], the MIC in data set [1] came out at 0.03 µg/mL (≈ 0.0607 µM); in data set [2] it was 0.015 µg/mL (≈ 0.0304 µM); in [3], 16 µg/mL (≈ 32.4 µM); in the data set on E. coli (ATCC 25922) (setting [9]), 1 µg/mL (≈ 2.02 µM); in data set [4] it was 0.5 µg/mL (≈ 1.01 µM); in [5] it was 0.25 µg/mL (≈ 0.506 µM). Also, in data set [6] (setting [10]), the MIC was found to be 0.06 µg/mL (≈ 0.121 µM). The compound further had a concentration for half-maximal inhibition (IC50) on hERG greater than 30 µM.

For the compound `COc1ccc2ncc(C#N)c(CCN3CCC(NCc4ccc(OC)c([N+](=O)[O-])c4)CC3)c2c1` [VT-03-00063], the MIC in data set [1] was 0.25 µg/mL (≈ 0.526 µM); in data set [2], 0.25 µg/mL (≈ 0.526 µM); in data set [3] it was greater than 32 µg/mL; in the data set with E. coli (ATCC 25922) (setting [9]), 4 µg/mL (≈ 8.41 µM); in [4], 0.25 µg/mL (≈ 0.526 µM); in [5], 2 µg/mL (≈ 4.21 µM). Also, in data set [6] (setting [10]), the MIC came to 0.5 µg/mL (≈ 1.05 µM). In addition, the IC50 on hERG was greater than 30 µM.

Turning to `COc1ccc2ncc(=O)n(CCN3CCC(NCc4ccc(C)c(F)c4)CC3)c2n1` [VT-03-00101], the inhibition at 0.1 µM in [7] was 95.9%. Moreover, in data set [7], the inhibition at 1 µM is 92.3%. Also, the MIC with E. faecalis ATCC 51299 was 16 µg/mL (≈ 37.6 µM); in the data set on E. coli (ATCC 25922) (setting [11]), greater than 16 µg/mL; in data set [6] (setting [12]) it was 4 µg/mL (≈ 9.4 µM).

For the compound `Cc1ccc(CNC2CCN(CCn3c(=O)cnc4ccc(Br)cc43)CC2)cc1F` [VT-03-00102], the inhibition at 0.1 µM in data set [7] is 96.5%. Besides, the inhibition at 1 µM in data set [7] was 95.3%. Further, the MIC with E. faecalis ATCC 51299 is 0.5 µg/mL (≈ 1.06 µM); in the data set on E. coli (ATCC 25922) (setting [11]), 8 µg/mL (≈ 16.9 µM); in [6] (setting [12]), no more than 0.0075 µg/mL.

Consider `Cc1ccc(CNC2CCN(CCn3c(=O)cnc4ccc(C#N)cc43)CC2)cc1F` [VT-03-00103], for which the MIC in the data set on Acinetobacter BAA747 worked out at 1 µg/mL (≈ 2.38 µM); in the data set on E. faecalis ATCC 51299, 0.25 µg/mL (≈ 0.596 µM); in the data set with E. coli (ATCC 25922) (setting [11]), 0.5 µg/mL (≈ 1.19 µM); with Pseudomonas ATCC 27853, 32 µg/mL (≈ 76.3 µM); in data set [6] (setting [12]), 0.03 µg/mL (≈ 0.0715 µM). For the same compound, the inhibition at 0.1 µM in data set [7] is 55.8%. Also, in [7], the inhibition at 1 µM is 87.5%.

Take `Cc1ccc(CNC2CCN(CCn3c(=O)cnc4ccc(Cl)nc43)CC2)cc1F` [VT-03-00111]: the inhibition at 0.1 µM in data set [7] amounted to 90.4%. The inhibition at 1 µM in data set [7] is 87.6%. Also, the MIC came out at 0.5 µg/mL (≈ 1.16 µM) with E. faecalis ATCC 51299, 1 µg/mL (≈ 2.33 µM) with E. coli (ATCC 25922) (setting [11]) and 0.125 µg/mL (≈ 0.291 µM) in data set [6] (setting [12]).

In the case of `Cc1ccc(CNC2CCN(CCn3c(=O)cnc4ccc(F)cc43)CC2)cc1[N+](=O)[O-]` [VT-03-00113], the MIC in the data set with Acinetobacter BAA747 worked out at 0.25 µg/mL (≈ 0.569 µM); in the data set with E. faecalis ATCC 51299, 0.25 µg/mL (≈ 0.569 µM); with E. coli (ATCC 25922) (setting [11]) it was 0.125 µg/mL (≈ 0.284 µM); in the data set with Pseudomonas ATCC 27853 it was 8 µg/mL (≈ 18.2 µM); in [6] (setting [12]) it was 0.03 µg/mL (≈ 0.0683 µM). Also, in [7], the inhibition at 0.1 µM is 90%. The inhibition at 1 µM in [7] worked out at 94%. Besides, the AUC(0-t) in [8] (iv, 5 mg/kg) is 402 ng·h/mL; in [8] (oral, 10 mg/kg), 9.3 ng·h/mL. For the same compound, the Cmax in data set [8] (iv, 5 mg/kg) turned out to be 672 ng/mL; in [8] (oral, 10 mg/kg), 15.6 ng/mL. The time to peak (Tmax) in data set [8] (iv, 5 mg/kg) is 9.6 min; in data set [8] (oral, 10 mg/kg), 30 min. Also, the half-life in [8] (iv, 5 mg/kg) is 22.2 min. This compound also came in with a bioavailability in [8] (oral 10 mg/kg vs i.v. 5 mg/kg) of 1.16%.

As to `Cc1ccc(CNC2CCN(CCn3c(=O)cnc4ccc(OC(F)(F)F)cc43)CC2)cc1[N+](=O)[O-]` [VT-03-00114], the MIC in the data set on E. faecalis ATCC 51299 came to 0.5 µg/mL (≈ 0.989 µM); with E. coli (ATCC 25922) (setting [11]), 2 µg/mL (≈ 3.96 µM); in data set [6] (setting [12]), 0.06 µg/mL (≈ 0.119 µM).
